Measured values published in US20250041439A1, “ANTIBODY-DRUG CONJUGATES” (SPIREA LIMITED, priority 2021, published 2025).
Where two headings read alike, the source gives them in different places. Non-standard residues stand in square brackets, D forms with d. Residues, ends and D or L forms follow the SMILES beside them. *: point of attachment. Dolaproine = CO[C@@H]([C@@H]1CCCN1)[C@@H](C)C(=O)O; Dil = CC[C@H](C)[C@H](NC)[C@@H](CC(=O)O)OC; X1 = C[C@@H](N*)[C@@H](O)c1ccccc1; NMeV = CN[C@H](C(=O)O)C(C)C

Key:
[1] = test system: NCI-N87 human gastric cancer CDX model; format: in vivo; conditions: 3 mg/kg IV single dose, PG-D42
Description: The objective of this study was to evaluate the in vivo anti-tumour efficacy of the MMAE ADC of Example 3 in the subcutaneous NCI-N87 human gastric cancer CDX model in female BALB/c Nude mice.
• Species: Mus musculus • Strain: BALB/c Nude • Age: 6-8 weeks • Sex: female • Body weight: 18-22 g
The NCI-N87 tumor cells (ATCC, Manassas, VA, cat #CRL-5822) were maintained in vitro as a monolayer culture in RPMI-1640 medium supplemented with 10% fetal bovine serum, 1% Antibiotic-Antimycotic, at 37° C. in an atmosphere of 5% CO2 in air. The tumour cells were routinely subcultured twice weekly by trypsin-EDTA treatment. The cells growing in an exponential growth phase were harvested and counted for tumour inoculation.
Each mouse for efficacy study was inoculated subcutaneously at the right flank with NCI-N87 tumour cells (10×10^6) in 0.2 mL of PBS supplemented with Matrigel (1:1) for tumour development. Treatments were started on day 6 after tumour inoculation when the average tumour size reached approximately 198 mm^3. […]
All the procedures related to animal handling, care and the treatment in the study were performed according to the guidelines approved by the Institutional Animal Care and Use Committee (IACUC) of the CRO following the guidance of the Association for Assessment and Accreditation of Laboratory Animal Care (AAALAC). At the time of routine monitoring, the animals were daily checked for any effects of tumour growth and treatments on normal behaviour such as mobility, food and water consumption (by looking only), body weight gain/loss (body weights were measured twice weekly), eye/hair matting and any other abnormal effect as stated in the protocol. Death and observed clinical signs were recorded on the basis of the numbers of animals within each subset.
The major endpoint was to see if the tumour growth could be delayed or mice could be cured. Tumour size was measured twice weekly in two dimensions using a calliper, and the volume was expressed in mm^3 using the formula: V=0.5a×b^2 where a and b are the long and short diameters of the tumour, respectively. […]

[2] = test system: NCI-H520 (Her2 Negative, human lung squamous cell carcinoma); experiment: CellTiter-Glo luminescence viability assay with MMAE ADC; format: cell-based; conditions: NCI-H520 cells, 96 hours, n = 3; read-out: IC50 (anti-proliferative effect)
Description: (§1) The CellTiter-Glo© luminescence viability assay was used to measure the inhibitory effect of the MMAE ADC prepared in Example 3 on cell growth.
(§2) Her2^High SK-BR-3 (human breast adenocarcinoma, ATCC® HTB-30, Manassas, VA, United States) were cultured in McCoy's 5A medium supplemented with 200 U/mL penicillin, 200 μg/mL streptomycin and 20% heat-inactivated fetal bovine serum. Her2^Low JIMT-1 (human breast carcinoma, ACC589, DSMZ, Braunschweig, Germany) were cultured in DMEM GlutaMax® medium supplemented with 200 U/mL penicillin, 200 μg/mL streptomycin and 10% heat-inactivated fetal bovine serum. Her2^Negative NCI-H520 (human lung squamous cell carcinoma, ATCC®-HTB-182) were cultured in RPMI medium supplemented with 200 U/mL penicillin, 200 μg/mL streptomycin and 10% heat-inactivated fetal bovine serum.
(§3) SK-BR-3, JIMT-1 and NCI-H520 cells were seeded in 96-well plates at a density of 5×10^3, 2×10^3 and 2.5×10^3 cells in 100 μL growth medium, respectively, and incubated for 24 hours at 37° C./5% CO2.
(§4) After 96 hours in the presence of ADCs or controls, viability was detected using the CellTiter-Glo® luminescence assay. Assay plates were equilibrated at room temperature for 20 minutes before addition of 100 μL CellTiter-Glo® reagent per well. The plates were then mixed for 3 minutes at 300 rpm to assist cell lysis and incubated for a further 20 minutes at room temperature to stabilise the luminescence signal. Luminescence was recorded using a SpectraMax i3x plate reader with a default integration time of 0.5 s/well.

[3] = test system: JIMT-1 (Her2 Low, human breast carcinoma); experiment: as above; format: cell-based; conditions: JIMT-1 cells, 96 hours, n = 3; read-out: IC50 (anti-proliferative effect)
Description: as §1, §2, §3, §4

[4] = test system: SK-BR-3 (Her2 High, human breast adenocarcinoma); experiment: as above; format: cell-based; conditions: SK-BR-3 cells, 96 hours, n = 3; read-out: IC50 (anti-proliferative effect)
Description: as §1, §2, §3, §4

[5] = test system: SK-BR-3 cells (HER2 High, human breast adenocarcinoma); experiment: CellTiter-Glo luminescence viability assay with SN-38 ADCs; format: cell-based; conditions: n = 3, read-out: SK-BR-3 IC50 Mean (±St. Dev.)
Description: The plates were then mixed for 3 minutes at 300 rpm to assist cell lysis and incubated for a further 20 minutes at room temperature to stabilise the luminescence signal.

T-DM1
T/C [1]: 29.37% | TGI [1]: 78.58% | mean tumour volume [1]: 574 mm^3

CC[C@H](C)[C@@H]([C@@H](CC(=O)N1CCC[C@H]1[C@H](OC)[C@@H](C)C(=O)N[C@H](C)[C@@H](O)c1ccccc1)OC)N(C)C(=O)[C@@H](NC(=O)[C@@H](NC)C(C)C)C(C)C [MMAE, monomethyl auristatin E] (H-[NMeV]V[Dil][Dolaproine]-X1)
IC50 [2]: 0.334 ± 0.114 nM | IC50 [3]: 0.126 ± 0.053 nM | IC50 [4]: 0.284 ± 0.138 nM

CCc1c2c(nc3ccc(O)cc13)-c1cc3c(c(=O)n1C2)COC(=O)[C@]3(O)CC [SN-38]
IC50 ([5]; 9 h exposure (limited), then further 96 hours): 5.78 ± 2.01 nM | IC50 ([5]; 96 h exposure (continuous)): 1.17 ± 0.09 nM
